Laboratory results as given in patent publication US8354428B2, “Solid state forms of laquinimod and its sodium salt” (Actavis Group PTC EHF, priority 2008, dated 2013).

Legend:
Format in all cases: physicochemical
[1] = Bulk density method of analysis; conditions: about 10 g sample in 25 mL measuring cylinder
Experimental: (§1) The X-Ray powder diffraction was measured by an X-ray powder diffractometer equipped with a Cu-anode (λ=1.54 Angstrom), X-ray source operated at 40 kV, 40 mA and a Ni filter is used to strip K-beta radiation. Two-theta calibration is performed using an NIST SRM 1976, Corundum standard. The sample was analyzed using the following instrument parameters: measuring range=3-45° 20; step width=0.01579°; and measuring time per step=0.11 second. Infra-Red Spectroscopy (FT-IR): FT-IR spectroscopy was carried out with a Perkin Elmer Spectrum 100 series spectrometer. For the production of the KBr compacts approximately 2 mg of sample was powdered with 200 mg of KBr. The spectra were recorded in transmission mode ranging from 3800 to 450 cm^−1. Differential Scanning Calorimetry (DSC): DSC (Differential Scanning calorimetry) measurements were performed with a Differential Scanning calorimeter (Perkin Elmer diamond DSC) at a scan rate of 10° C. per minute. Bulk Density Method of Analysis About 10 g of sample was placed in a 25 mL measuring cylinder and measured the volume using the following formula: Bulk density=Weight of the sample (g)/Volume of the sample (mL) Tap Density Method of Analysis

[2] = Polymorphic stability on storage in LDPE bag, checked by P-XRD
Experimental: as §1
Laquinimod sodium crystalline Form A1 was prepared according to the process exemplified in Example 2 and was packed in a self-sealing low-density polyethylene (LDPE) bag. […]

[3] = Tap density method of analysis (Sotax tapping instrument, USP II); conditions: about 10 g sample, tapped to constant volume
Experimental: About 10 g of sample was placed in a 25 mL measuring cylinder and measured the initial volume. The measuring cylinder was kept in a Sotax Tapping instrument (USP II) and measured the volume of the sample every 50 tappings until a constant volume is obtained using the following formula: Tap Density=Weight of the sample (g)/constant Volume of the sample after tapping (mL)

[4] = Particle size distribution by laser diffraction (Malvern Master Sizer 2000); conditions: 90 volume-percent of particles below this diameter
Description: As used herein, “Particle Size Distribution (P.S.D)” means the cumulative volume size distribution of equivalent spherical diameters as determined by laser diffraction in Malvern Master Sizer 2000 equipment or its equivalent. As used herein, DX means that X percent of the particles have a diameter less than a specified diameter D. Thus, a D90 or d(0.9) of less than 300 microns means that 90 volume-percent of the particles in a composition have a diameter less than 300 microns.

CCN(C(=O)c1c(O)c2c(Cl)cccc2n(C)c1=O)c1ccccc1.[Na] [laquinimod sodium crystalline Form A1, N-ethyl-N-phenyl-1,2-dihydro-4-hydroxy-5-chloro-1-methyl-2-oxoquinoline-3-carboxamide sodium]
Bulk density [1]: 0.333 g/mL
Polymorphic stability (maintenance of the original P-XRD pattern) ([2]; stored 3 months at about 40±2° C., relative humidity about 75±5%): retain its polymorphic form
Polymorphic stability (maintenance of the original P-XRD pattern) ([2]; stored 6 months at 25±2° C., relative humidity about 60±5%): retain its polymorphic form
Tapped density [3]: 0.476 g/mL
Particle size distribution d(0.9) [4]: 26.3 microns
